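Protocol summary: plate cells (96-well), add compound at 5 concentrations, incubate 48 h, interpolate endpoints linearly. Here, GI50 denotes the concentration required for 50% inhibition of growth.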 Activity calls are given as the source filed them. Cut-off read from the data, not from the text of the source: active = GI50 up to about 1.1 µM and inactive = higher.
Key:
Test in all cases: growth of human tumour cells (NCI), 48 h
A498 = test system: A498
A549 = test system: A549
HCT-116 = test system: HCT-116
HT-29 = test system: HT-29
LOX IMVI = test system: LOX IMVI
LXFL 529 = test system: LXFL 529
M19-MEL = test system: M19-MEL
MOLT-4 = test system: MOLT-4
NCI-H23 = test system: NCI-H23
NCI-H460 = test system: NCI-H460
RPMI-8226 = test system: RPMI-8226
SK-MEL-2 = test system: SK-MEL-2
SN12C = test system: SN12C
SW-620 = test system: SW-620
U-251 = test system: U-251
UACC-62 = test system: UACC-62

Measured: GI50

O=C1CC2=CCCC2O1 (stereo unspecified)
inactive: A498 > 100 µM | A549 > 100 µM | HCT-116 > 100 µM | HT-29 > 100 µM | LOX IMVI > 100 µM | LXFL 529 > 100 µM | M19-MEL > 100 µM | MOLT-4 > 100 µM | NCI-H23 > 100 µM | NCI-H460 > 100 µM | RPMI-8226 > 100 µM | SK-MEL-2 > 100 µM | SN12C > 100 µM | SW-620 > 100 µM | U-251 > 100 µM | UACC-62 > 100 µM

Cc1cc2nc(O)c(CCC(=O)O)nc2cc1C
inactive: A498 > 100 µM | A549 > 100 µM | HCT-116 > 100 µM | HT-29 > 100 µM | LOX IMVI > 100 µM | LXFL 529 > 100 µM | M19-MEL > 100 µM | MOLT-4 > 100 µM | NCI-H23 > 100 µM | NCI-H460 > 100 µM | RPMI-8226 > 100 µM | SK-MEL-2 > 100 µM | SN12C > 100 µM | U-251 > 100 µM | UACC-62 > 100 µM

CSC(=O)C[C@@]12O[C@@H]([C@@H](C)C3CCC4[C@@H]5C(O)CC6=CC(=O)C=C[C@]6(C)C5CC[C@@]43C)C[C@](C)(O1)C(C)(C)O2 (stereo partly specified)
inactive: A498 16.4 µM | A549 15.5 µM | HCT-116 12.8 µM | HT-29 14.5 µM | LOX IMVI 12.1 µM | LXFL 529 13.2 µM | M19-MEL 1.43 µM | NCI-H23 > 10 µM | NCI-H460 19.1 µM | RPMI-8226 4.8 µM | SK-MEL-2 22.9 µM | SN12C 16.6 µM | SW-620 17.3 µM | U-251 12.5 µM | UACC-62 10.3 µM

O=C1NC(=S)NC(=O)C1=Cc1ccc2ccccc2n1
inactive: A498 > 100 µM | A549 > 100 µM | HCT-116 > 100 µM | HT-29 > 100 µM | LOX IMVI > 100 µM | LXFL 529 > 100 µM | M19-MEL > 100 µM | MOLT-4 > 100 µM | NCI-H23 > 100 µM | NCI-H460 > 100 µM | RPMI-8226 > 100 µM | SK-MEL-2 > 100 µM | SN12C > 100 µM | SW-620 > 100 µM | U-251 > 100 µM | UACC-62 > 100 µM

Cc1ccc2nc(NC(=O)C(=O)C(C#N)c3nc4ccccc4s3)sc2c1 (stereo unspecified)
inactive: A498 19.5 µM | HCT-116 38.4 µM | HT-29 26.8 µM | LOX IMVI 37.2 µM | LXFL 529 28.4 µM | M19-MEL 43.6 µM | MOLT-4 20.4 µM | NCI-H23 35 µM | NCI-H460 34 µM | RPMI-8226 28.3 µM | SK-MEL-2 32.4 µM | SN12C 54 µM | SW-620 55.1 µM | U-251 33.7 µM | UACC-62 30.7 µM

COc1ccc([C@H]2CC3C(=O)N(c4ccc(OC)cc4)C(=O)C3c3[nH]c4ccccc4c32)cc1 (stereo partly specified)
inactive: A498 > 100 µM | A549 47.4 µM | HCT-116 9.31 µM | LOX IMVI > 100 µM | LXFL 529 55.1 µM | M19-MEL 71.4 µM | MOLT-4 32.9 µM | NCI-H23 54 µM | NCI-H460 18.6 µM | SK-MEL-2 53 µM | SN12C 51.9 µM | SW-620 45.6 µM | U-251 59.6 µM | UACC-62 > 100 µM

CC(C)CCC[C@@H](C)C1CCC2[C@@H]3CC=C4C[C@@H](C(=O)NCC[N+](C)(C)CCCS(=O)(=O)[O-])CC[C@]4(C)C3CC[C@@]21C (stereo partly specified)
inactive: A498 > 10 µM | A549 17.3 µM | HCT-116 16.8 µM | HT-29 18 µM | LOX IMVI 11.7 µM | LXFL 529 18.8 µM | M19-MEL 17.1 µM | MOLT-4 18.2 µM | NCI-H460 15.7 µM | RPMI-8226 20.4 µM | SK-MEL-2 18.2 µM | SN12C 17.9 µM | SW-620 16.6 µM | U-251 17.3 µM | UACC-62 20.1 µM

From ChEMBL document CHEMBL1201862, “PubChem BioAssay data set” (2004)
